The target of experiment [1] is T1, Bifunctional epoxide hydrolase 2 (Homo sapiens, UniProt P34913).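 Further: recombinant enzyme with CMNPC substrate, fluorescence readout of 6-methoxy-2-naphthaldehyde formed over a 10 min reaction.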
T1 sequence (P34913 whole entry): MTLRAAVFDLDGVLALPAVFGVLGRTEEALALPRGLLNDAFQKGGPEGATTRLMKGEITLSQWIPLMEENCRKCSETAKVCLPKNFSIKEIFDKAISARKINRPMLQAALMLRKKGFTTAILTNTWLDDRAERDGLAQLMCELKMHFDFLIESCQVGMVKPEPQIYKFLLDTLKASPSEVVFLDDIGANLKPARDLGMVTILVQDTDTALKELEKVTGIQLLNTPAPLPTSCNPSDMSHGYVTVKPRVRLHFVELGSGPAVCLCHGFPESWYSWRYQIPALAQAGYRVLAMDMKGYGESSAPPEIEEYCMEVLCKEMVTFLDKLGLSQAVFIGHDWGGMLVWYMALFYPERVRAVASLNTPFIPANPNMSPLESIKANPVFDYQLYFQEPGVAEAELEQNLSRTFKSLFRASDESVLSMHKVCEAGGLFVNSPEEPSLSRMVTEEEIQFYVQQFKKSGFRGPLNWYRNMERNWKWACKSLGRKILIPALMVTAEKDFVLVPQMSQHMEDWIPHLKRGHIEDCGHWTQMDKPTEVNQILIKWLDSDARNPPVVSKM

Experiment [2] deals with Mycobacterium tuberculosis. Nature of the experiment: Antimycobacterial activity against Mycobacterium tuberculosis H37Ra at 10 uM. The format is functional, organism-based.
For experiment [3], the system named is Mycobacterium tuberculosis. Nature of the experiment: microbe, parasite or virus in culture. The format is functional. To be noted: H37Ra.

Values after ≈ are worked out from the molar mass of the structure shown. Active and inactive are the calls of the source. The calls are words filed in the database; no cut-off is given here. Some results are limits rather than exact numbers.

Take `O=C(NC12CC3CC(CC(C3)C1)C2)N[C@H]1CC[C@H](OC(=O)c2ccccc2)CC1`: half-maximal inhibition in experiment [1] (IC50) was put at 1 nM. The result in experiment [2] was inactive. Besides, the MIC in experiment [3] is more than 79 µg/mL.
`O=C(Nc1cccc(C(=O)O)c1)NC12CC3CC(CC(C3)C1)C2`: the result in experiment [2] was Active. The compound further returned an MIC in experiment [3] of 7.8 µg/mL (≈ 24.8 µM).
Regarding `O=C(NC12CC3CC(CC(C3)C1)C2)N[C@H]1CC[C@@H](OC2CCCCC2)CC1`, 1.6 nM corresponded to half-maximal inhibition in experiment [1] (IC50). In experiment [3], this compound yielded an MIC of more than 75 µg/mL.
Take `COCCOCCCCCNC(=O)NC12CC3CC(CC(C3)C1)C2`: in experiment [1], the IC50 (commonly the midpoint of a concentration-inhibition curve) amounted to 12.1 nM. Further, in experiment [3], the MIC came out at 68 µg/mL (≈ 201 µM).
The corresponding values for `O=C(NCC1CCCCC1)Nc1cccc(Cl)c1` are 2.6 nM and 1.67 µg/mL (≈ 6.26 µM).
In the case of `O=C(Nc1cccc(C(F)(F)F)c1)NC12CC3CC(CC(C3)C1)C2`, the IC50 in experiment [1] was found to be 2.4 nM. Further, the MIC in experiment [3] is 0.8 µg/mL (≈ 2.36 µM).
`O=C(NC12CC3CC(CC(C3)C1)C2)N[C@H]1CC[C@@H](Oc2ccc(C(F)(F)F)cn2)CC1` yielded an IC50 in experiment [1] of 1.8 nM. In addition, the MIC in experiment [3] was determined as 1.37 µg/mL (≈ 3.13 µM).
For the compound `O=C(CCCCCCOCc1ccccc1)NC12CC3CC(CC(C3)C1)C2`, in experiment [1], half-maximal inhibition (IC50) required 66.5 nM. Besides, in experiment [3], the MIC amounted to 9.24 µg/mL (≈ 25 µM).
Compound `O=C(Nc1ccc(C(=O)c2ccccc2)cc1)NC12CC3CC(CC(C3)C1)C2` had an IC50 in experiment [1] of 1.6 nM. Besides, in experiment [3], the MIC stood at 1.8 µg/mL (≈ 4.81 µM).
In turn, `O=C(NCCCCCOCCOCCOCc1ccccc1)NC12CC3CC(CC(C3)C1)C2` showed an IC50 in experiment [1] of 10.8 nM. The compound also had an MIC in experiment [3] of 46 µg/mL (≈ 100 µM).
Taken in the same sequence, the figures for `Cc1cccc(NC(=O)NC23CC4CC(CC(C4)C2)C3)c1` were 6.1 nM and 1.1 µg/mL (≈ 3.87 µM).
Taken in the same sequence, the figures for `CC(C)OCCOCCOCCCCCNC(=O)NC12CC3CC(CC(C3)C1)C2` were 4.1 nM and 21 µg/mL (≈ 51.1 µM).
As for `O=C(Nc1ccc(C(F)(F)F)cc1)Nc1ccc(C(F)(F)F)cc1`, half-maximal inhibition in experiment [1] (IC50) was put at 15 nM. In experiment [3], the MIC stood at 2.18 µg/mL (≈ 6.26 µM).
In turn, `O=C(Nc1cccc(C(=O)c2ccccc2)c1)NC12CC3CC(CC(C3)C1)C2` displayed an IC50 in experiment [1] of 2.7 nM. Further, in experiment [3], the MIC was 4.68 µg/mL (≈ 12.5 µM).
`O=C(Nc1ccc(CC(=O)c2ccccc2)cc1)NC12CC3CC(CC(C3)C1)C2`: in experiment [1], the 50% inhibitory concentration (IC50) turned out to be 4.7 nM. Moreover, the MIC in experiment [3] worked out at 2.43 µg/mL (≈ 6.25 µM).
In experiment [1], `CC(C)(C)c1ccc(NC(=O)NC2CCCCC2)cc1` showed an IC50 of 3.9 nM. The same compound yielded an MIC in experiment [3] of 1.72 µg/mL (≈ 6.27 µM).
In experiment [1], `CCCCCCc1ccc(NC(=O)NC2CCCCC2)cc1` yielded an IC50 of 1.8 nM. The MIC in experiment [3] is 1.89 µg/mL (≈ 6.25 µM).
Consider `O=C(Nc1cccc([N+](=O)[O-])c1)N[C@H]1CC[C@H](OCc2c(F)cccc2F)CC1`, for which half-maximal inhibition in experiment [1] (IC50) required 90 nM. The compound also had an MIC in experiment [3] of 10.1 µg/mL (≈ 25 µM).
On to `O=C(Nc1ccc(OCCOCCOCC(F)(F)F)cc1)NC12CC3CC(CC(C3)C1)C2`, for which the IC50 in experiment [1] was determined as 3.3 nM. This compound displayed an MIC in experiment [3] of 11 µg/mL (≈ 24.1 µM).
In experiment [1], `O=C(Nc1cccc(OC(F)(F)C(F)F)c1)NC12CC3CC(CC(C3)C1)C2` displayed an IC50 of 1.5 nM. Moreover, the MIC in experiment [3] amounted to 1.4 µg/mL (≈ 3.62 µM).
Regarding `O=C(Nc1cccc(C(F)(F)F)c1)NC1CCCCC1`, the IC50 in experiment [1] was 8.7 nM. In addition, the MIC in experiment [3] was 1.79 µg/mL (≈ 6.25 µM).
As for `O=C(NCCCc1ccccc1)NC12CC3CC(CC(C3)C1)C2`, half-maximal inhibition in experiment [1] (IC50) was put at 1 nM. Also, the MIC in experiment [3] was found to be 0.7 µg/mL (≈ 2.24 µM).
`O=C(Nc1cccc(C(=O)NCC2CN(Cc3ccccc3)CCO2)c1)NC12CC3CC(CC(C3)C1)C2` (stereo unspecified) showed an IC50 in experiment [1] of 13.6 nM. Further, in experiment [3], the MIC was more than 101 µg/mL.
The corresponding values for `O=C(NN1CCOCC1)NC12CC3CC(CC(C3)C1)C2` are 12800 nM and more than 56 µg/mL.
With `O=C(Nc1cccc(C(=O)Nc2ccc(N3CCOCC3)cc2)c1)NC12CC3CC(CC(C3)C1)C2`, in experiment [1], the IC50 was found to be 74.2 nM. In experiment [3], this compound had an MIC of more than 95 µg/mL.
The corresponding values for `C=C(CCCNC(=O)NC12CC3CC(CC(C3)C1)C2)OCCOCCOCC` are 67 nM and more than 79 µg/mL.
The corresponding values for `CC(C)c1ccc(NC(=O)NCC2CCCCC2)cc1` are 1.1 nM and 1.72 µg/mL (≈ 6.27 µM).
With `CCCCCCCCCCCC(=O)NC12CC3CC(CC(C3)C1)C2`, in experiment [1], half-maximal inhibition (IC50) was put at 159 nM. In experiment [3], the MIC is 4.17 µg/mL (≈ 12.5 µM).
The corresponding values for `CCOC(=O)COc1ccc(NC(=O)NC23CC4CC(CC(C4)C2)C3)cc1` are 0.8 nM and 4.7 µg/mL (≈ 12.6 µM).
Compound `COC(=O)c1ccc(NC(=O)N[C@H]2CC[C@@H](Oc3cc(C(=O)OC)cc(C(=O)OC)c3)CC2)cc1` registered an IC50 in experiment [1] of 3.8 nM. In experiment [3], this compound returned an MIC of 3.03 µg/mL (≈ 6.25 µM).
In turn, `COc1cc(NC(=O)NC23CC4CC(CC(C4)C2)C3)cc(C(F)(F)F)c1` displayed an IC50 in experiment [1] of 1.7 nM. The same compound registered an MIC in experiment [3] of 0.58 µg/mL (≈ 1.57 µM).
As for `O=C(Nc1cccc(Oc2ccccc2)c1)NC12CC3CC(CC(C3)C1)C2`, the IC50 in experiment [1] was 0.9 nM. The compound also returned an MIC in experiment [3] of 2.27 µg/mL (≈ 6.26 µM).
Compound `O=C(NCCCCCOCCN1CCOCC1)NC12CC3CC(CC(C3)C1)C2` had an IC50 in experiment [1] of 2.3 nM. This compound returned an MIC in experiment [3] of more than 79 µg/mL.
`CCOC(=O)c1ccc(O[C@H]2CC[C@@H](NC(=O)NC34CC5CC(CC(C5)C3)C4)CC2)cc1` displayed an IC50 in experiment [1] of 1.6 nM. Besides, the MIC in experiment [3] was 8.3 µg/mL (≈ 18.8 µM).
With `O=C(NC1CCCC(C(=O)N2CCC(N3CCOCC3)CC2)C1)NC12CC3CC(CC(C3)C1)C2` (stereo unspecified), the IC50 in experiment [1] turned out to be 6.1 nM. This compound registered an MIC in experiment [3] of more than 95 µg/mL.
`O=C(Nc1cccc(OC(F)(F)F)c1)NC12CC3CC(CC(C3)C1)C2` displayed an IC50 in experiment [1] of 3.1 nM. This compound also came in with an MIC in experiment [3] of 0.2 µg/mL (≈ 0.564 µM).
The corresponding values for `O=C(NCCCN1CCOCC1)NC12CC3CC(CC(C3)C1)C2` are 610 nM and more than 64 µg/mL.
In experiment [1], `O=C(Nc1cccc(C(=O)NCCCN2CCOCC2)c1)NC12CC3CC(CC(C3)C1)C2` registered an IC50 of 57.9 nM. The compound further returned an MIC in experiment [3] of more than 33 µg/mL.
The corresponding values for `COC(=O)Cc1ccc(NC(=O)NC23CC4CC(CC(C4)C2)C3)cc1` are 4.4 nM and 2.1 µg/mL (≈ 6.13 µM).
Taken in the same sequence, the figures for `CCOCCOCC(OC(=O)CCCNC(=O)NC12CC3CC(CC(C3)C1)C2)c1ccccc1` (stereo unspecified) were 4.2 nM and 95 µg/mL (≈ 201 µM).
The corresponding values for `O=C(NC1CCCC(C(=O)N2CCOCC2)C1)NC12CC3CC(CC(C3)C1)C2` (stereo unspecified) are 8.2 nM and more than 81 µg/mL.
In experiment [1], `CCOC(=O)C(F)(F)Oc1ccc(NC(=O)NC23CC4CC(CC(C4)C2)C3)cc1` yielded a half-inhibitory concentration (IC50) of 0.8 nM. For the same compound, the MIC in experiment [3] came to 1.28 µg/mL (≈ 3.13 µM).
`O=C(Nc1ccc(I)cc1)NC12CC3CC(CC(C3)C1)C2` came in with an IC50 in experiment [1] of 0.5 nM. Moreover, the MIC in experiment [3] turned out to be 0.6 µg/mL (≈ 1.51 µM).
With `CCOCCOCCOCCCCCCNC(=O)NC12CC3CC(CC(C3)C1)C2`, in experiment [1], inhibition was half-maximal at 1.2 nM (IC50). For the same compound, the MIC in experiment [3] was found to be 82 µg/mL (≈ 200 µM).
With `O=C(NC12CC3CC(CC(C3)C1)C2)N[C@H]1CC[C@H](Oc2ccc(C(=O)O)cc2)CC1`, the result in experiment [2] was inactive. The MIC in experiment [3] was 21 µg/mL (≈ 50.9 µM).
For the compound `COCC(=O)c1ccc(O[C@H]2CC[C@@H](NC(=O)NC34CC5CC(CC(C5)C3)C4)CC2)cc1`, half-maximal inhibition in experiment [1] (IC50) was put at 3.8 nM. The compound further yielded an MIC in experiment [3] of 5.51 µg/mL (≈ 12.5 µM).
The corresponding values for `O=C(Nc1ccc(OC(F)(F)F)cc1)NC1CCCCC1` are 0.8 nM and 0.94 µg/mL (≈ 3.11 µM).
The compound `O=C(NC1CCCC(C(=O)NN2CCOCC2)C1)NC12CC3CC(CC(C3)C1)C2` (stereo unspecified) registered an IC50 in experiment [1] of 25.8 nM. In experiment [3], the MIC is more than 84 µg/mL.
`O=C(Nc1ccc(Cl)c(Cl)c1)Nc1ccc(Cl)c(Cl)c1` yielded an IC50 in experiment [1] of 28.1 nM. This compound came in with an MIC in experiment [3] of 2.19 µg/mL (≈ 6.26 µM).
As for `CC(=O)c1cccc(NC(=O)NC23CC4CC(CC(C4)C2)C3)c1`, the IC50 in experiment [1] is 1.3 nM. In experiment [3], the MIC was found to be 3.9 µg/mL (≈ 12.5 µM).

Values taken from ChEMBL document CHEMBL2029208 (Bioorg Med Chem, 2012).
